From article PMC11079024, “Identification of a family of species-selective complex I inhibitors as potential anthelmintics” (Nature Communications, 2024)

These compounds were tested on adult H. polygyrus (assay: microbe, parasite or virus in culture). Details: Heligmosomoides polygyrus, 24 h, adult H. polygyrus, anaerobic, replicate 1; 24 hours after treatment; affected = score equal to or lower than 1.5; read-out: Percent Worms Affected.
Type: cell-based, Heligmosomoides polygyrus
Method: To investigate the impact of the eleven benzimidazole derivatives under anaerobic conditions, an anaerobic chamber with an integrated incubator (Coy Laboratory Products, USA) was used. The same procedure was followed as described for the aerobic drug screening in adult H. polygyrus, but the incubation took place within the anaerobic chamber (37 °C, 85% N2, 10% CO2, 5% H2). Benzimidazole derivatives were tested at a concentration of 10 µM. For scoring, the plates had to be removed from the anaerobic chamber. The whole experiment was performed two times i.e., two independent biological replicates.
The activities of eleven benzimidazole derivatives were tested against adult H. polygyrus viability in vitro under aerobic (+, white boxplots) and anaerobic (–, coloured boxplots) conditions (see Methods). After 24-hour chemical treatment, worm viability was manually scored by an examiner using a scale from 0 (dead) to 3 (motile); DMSO was used as a negative control in both aerobic and anaerobic conditions; levamisole was used as a positive control in anaerobic conditions. The percentage of affected worms (i.e., worms with a score equal to or lower than 1.5) in each biological replicate is shown; data are from two biological replicates. Within each boxplot, black horizontal lines denote group medians, boxes span from the 25th to the 75th percentile of each group’s distribution, and whiskers extend to the maximum and minimum values. […]

| Structure (SMILES) | killing at 10 µM [%] |
| --- | --- |
| Cc1nc2ccccc2n1Cc1ccc(Cl)cc1 [STK697993] | 100 |
| Clc1ccc(Cn2cnc3ccccc32)c(Cl)c1 [Compound 6750659] | 50 |
| Cc1nc2ccccc2n1Cc1ccccc1Cl [Compound 6707368] | 100 |
| CC(C)Cc1ccc(C(C)c2nc3ccccc3n2C(C)C)cc1 (stereo not drawn) [STK951903] | 67 |
| CCn1c(C(C)c2ccc(CC(C)C)cc2)nc2ccccc21 (stereo not drawn) [STK951902] | 100 |
| Cc1ccccc1OCCCCn1cnc2ccccc21 [Compound 7732524] | 60 |

Same assay, conditions: Heligmosomoides polygyrus, 24 h, adult H. polygyrus, anaerobic, replicate 2; 24 hours after treatment; affected = score equal to or lower than 1.5; read-out: Percent Worms Affected

| Structure (SMILES) | killing at 10 µM [%] |
| --- | --- |
| Cc1nc2ccccc2n1Cc1ccc(Cl)cc1 [STK697993] | 33 |
| Clc1ccc(Cn2cnc3ccccc32)c(Cl)c1 [Compound 6750659] | 67 |
| Cc1nc2ccccc2n1Cc1ccccc1Cl [Compound 6707368] | 33 |
| CC(C)Cc1ccc(C(C)c2nc3ccccc3n2C(C)C)cc1 (stereo not drawn) [STK951903] | 83 |
| CCn1c(C(C)c2ccc(CC(C)C)cc2)nc2ccccc21 (stereo not drawn) [STK951902] | 67 |
| Cc1ccccc1OCCCCn1cnc2ccccc21 [Compound 7732524] | 0 |

Same assay, conditions: anaerobic, replicate 1; 24 hours after treatment; worms with score equal to or lower than 1.5

| Structure (SMILES) | # of Worms Affected |
| --- | --- |
| Cc1nc2ccccc2n1Cc1ccc(Cl)cc1 [STK697993] | 7 |
| Clc1ccc(Cn2cnc3ccccc32)c(Cl)c1 [Compound 6750659] | 3 |
| Cc1nc2ccccc2n1Cc1ccccc1Cl [Compound 6707368] | 6 |
| CC(C)Cc1ccc(C(C)c2nc3ccccc3n2C(C)C)cc1 (stereo not drawn) [STK951903] | 4 |
| CCn1c(C(C)c2ccc(CC(C)C)cc2)nc2ccccc21 (stereo not drawn) [STK951902] | 6 |
| Cc1ccccc1OCCCCn1cnc2ccccc21 [Compound 7732524] | 3 |

Same assay, conditions: anaerobic, replicate 2; 24 hours after treatment; worms with score equal to or lower than 1.5

| Structure (SMILES) | # of Worms Affected |
| --- | --- |
| Cc1nc2ccccc2n1Cc1ccc(Cl)cc1 [STK697993] | 2 |
| Clc1ccc(Cn2cnc3ccccc32)c(Cl)c1 [Compound 6750659] | 4 |
| Cc1nc2ccccc2n1Cc1ccccc1Cl [Compound 6707368] | 2 |
| CC(C)Cc1ccc(C(C)c2nc3ccccc3n2C(C)C)cc1 (stereo not drawn) [STK951903] | 5 |
| CCn1c(C(C)c2ccc(CC(C)C)cc2)nc2ccccc21 (stereo not drawn) [STK951902] | 4 |
| Cc1ccccc1OCCCCn1cnc2ccccc21 [Compound 7732524] | 0 |
